Data taken from ChEMBL document CHEMBL5625204, “Synthesis and pharmacodynamic evaluation of naphthalene derivatives against influenza A virus in vitro and in vivo” (Eur J Med Chem, 2023).
Activity calls are given as the source filed them. The rule behind the calls is not given here.

Assays:
[1] = Cytotoxicity against dog MDCK cells assessed as reduction in cell viability incubated for 72 hrs by MTT assay; type: toxicity, cell-based, Canis lupus familiaris
[2] = test system: Influenza A virus; experiment: Antiviral activity against Influenza A virus H1N1 (A/Weiss/43) infected in MDCK cells assessed as reduction of viral replication at 0.625 to 100 uM incubated for 72 hrs by TCID50 method; type: functional, organism-based; settings: dose 0.625-100 µM
[3] = test system: Influenza A virus; experiment: Antiviral activity against Influenza A virus H1N1 (A/Weiss/43) infected in MDCK cells assessed as reduction of viral replication treated for 72 hrs after viral adsorption by TCID50 method; type: functional, organism-based
[4] = Selectivity index, ratio of CC50 for dog MDCK cells to EC50 for antiviral activity against Influenza A virus H1N1 (A/Weiss/43) infected in MDCK cells treated for 72 hrs after viral adsorption; type: toxicity, cell-based; settings: read-out: Ratio CC50/EC50
[5] = test system: Influenza A virus; experiment: Antiviral activity against Influenza A virus H1N1 (A/Weiss/43)-infected in BALB/c mouse assessed as reduction in pulmonary inflammation at 50 mg/kg/day administered intranasally for 6 days starting from 3 hrs post-viral infection by Hematoxylin-Eosin staining based analysis; type: functional, organism-based; settings: route nas, time 6.0 day
[6] = test system: Influenza A virus; experiment: Antiviral activity against Influenza A virus H1N1 (A/Weiss/43)-infected in BALB/c mouse assessed as reduction in lung index at 50 mg/kg/day administered intranasally for 6 days starting from 3 hrs post-viral infection; type: functional; settings: 144 h, route nas, time 6 day
[7] = test system: Influenza A virus; experiment: Antiviral activity against Influenza A virus H1N1 (A/Virginia/ATCC2/2009) infected in MDCK cells assessed as reduction of viral replication incubated for 72 hrs by TCID50 method; type: functional, organism-based
[8] = Selectivity index, ratio of CC50 for dog MDCK cells to EC50 for antiviral activity against Influenza A virus H1N1 (A/Virginia/ATCC2/2009) infected in MDCK cells; type: toxicity, cell-based; settings: read-out: Ratio CC50/EC50
[9] = test system: Influenza A virus; experiment: Antiviral activity against Influenza A virus H3N2 (A/California/2004) infected in MDCK cells assessed as reduction of viral replication incubated for 72 hrs by TCID50 method; type: functional, organism-based
[10] = Selectivity index, ratio of CC50 for dog MDCK cells to EC50 for antiviral activity against Influenza A virus H3N2 (A/California/2004) infected in MDCK cells; type: toxicity, cell-based; settings: read-out: Ratio CC50/EC50
[11] = test system: Influenza A virus; experiment: Antiviral activity against Influenza A virus H1N1 (A/Weiss/43)-infected in dog MDCK cells assessed as reduction in oxidative stress by measuring proportion of normal cells at 50 uM treated at 2 hrs post-infection and measured after 36 hrs by DCFH-DA staining based flow cytometry (reference value: 69.4%); type: functional; set-up: scale not given: the % may be the effect or the level left
[12] = test system: Influenza A virus; experiment: Antiviral activity against Influenza A virus H1N1 (A/Weiss/43)-infected in dog MDCK cells assessed as reduction in oxidative stress by measuring proportion of cells with excessive ROS accumulation at 50 uM treated at 2 hrs post-infection and measured after 36 hrs by DCFH-DA staining based flow cytometry (reference value: 30.6%); type: functional; set-up: scale not given: the % may be the effect or the level left
[13] = test system: Influenza A virus; experiment: Antiviral activity against Influenza A virus H1N1 infected in dog MDCK cells assessed as decrease in apoptosis by measuring proportion of viable cells at 50 uM measured after 72 hrs by AnnexinV-FITC/PI staining based flow cytometry (reference value: 62.9%); type: functional
[14] = test system: Influenza A virus; experiment: Antiviral activity against Influenza A virus H1N1 infected in dog MDCK cells assessed as decrease in apoptosis by measuring proportion of early apoptotic cells at 50 uM measured after 72 hrs by AnnexinV-FITC/PI staining based flow cytometry (reference value: 24.3%); type: functional; set-up: scale not given: the % may be the effect or the level left
[15] = test system: Influenza A virus; experiment: Antiviral activity against Influenza A virus H1N1 infected in dog MDCK cells assessed as decrease in apoptosis by measuring proportion of late apoptotic cells at 50 uM measured after 72 hrs by AnnexinV-FITC/PI staining based flow cytometry (reference value: 10.3%); type: functional; set-up: scale not given: the % may be the effect or the level left
[16] = test system: Influenza A virus; experiment: Antiviral activity against Influenza A virus H1N1 infected in dog MDCK cells assessed as decrease in apoptosis by measuring proportion of necrotic cells at 50 uM measured after 72 hrs by AnnexinV-FITC/PI staining based flow cytometry (reference value: 2.47%); type: functional; set-up: scale not given: the % may be the effect or the level left
[17] = test system: Influenza A virus; experiment: Inhibition of Influenza A virus Neuraminidase at 100 to 300 uM pretreated with enzyme for 5 mins followed by fluorogenic substrate addition and measured for 1 hr by fluorescence based analysis; settings: dose 100-300 µM, time 65.0 min

SMILES | CC50 at 72 h [1] [µM] | Activity [2] | further results
COc1ccc(S(=O)(=O)N(Cc2ccccc2)c2cc3ccccc3c3ccccc23)cc1 | 288 | inactive | –
CC(=O)c1ccc2c(c1)c(N(Cc1ccccc1)S(=O)(=O)c1ccc(C)cc1)cc1ccccc12 | 382 | inactive | –
Cc1ccc(S(=O)(=O)N(Cc2ccccc2)c2cc3ccccc3c3ccc(F)cc23)cc1 | 1040 | inactive | –
Cc1ccc(S(=O)(=O)N(Cc2ccccc2)c2cccc3ccccc23)cc1 | 1370 | inactive | –
O=C1OCCN1c1cc2ccccc2c2ccccc12 | 212 | inactive | –
Cc1ccc(S(=O)(=O)Nc2cc3ccccc3c3cc(C)ccc23)cc1 | 227 | inactive | –
COc1ccc(S(=O)(=O)N(Cc2ccccc2)C2=CCCc3ccccc32)cc1 | > 800 | inactive | –
Cc1ccc(S(=O)(=O)N(Cc2ccccc2)c2cc3ccccc3c3ccc(Cl)cc23)cc1 | > 800 | inactive | –
O=S(=O)(c1ccc(Cl)cc1)N(Cc1ccccc1)c1cc2ccccc2c2ccccc12 | > 800 | – | EC50 [3]: 30.1 µM; selectivity ratio at 72 h [4]: > 26.7
O=[N+]([O-])c1ccc(S(=O)(=O)N(Cc2ccccc2)c2cc3ccccc3c3ccccc23)cc1 | 726 | inactive | –
O=S(=O)(c1ccc(Cl)cc1)N(Cc1ccccc1)C1=CCCc2ccccc21 | > 800 | inactive | –
C=CCN(c1cc2ccccc2c2ccccc12)S(=O)(=O)c1ccc(C)cc1 | 61.2 | inactive | –
CS(=O)(=O)N(Cc1ccccc1)c1cc2ccccc2c2ccccc12 | > 800 | inactive | –
Cc1ccc(S(=O)(=O)N(Cc2ccccc2)c2cc3ccccc3c3ccccc23)cc1 | > 800 | inactive | –
Cc1ccc(S(=O)(=O)N(Cc2ccccc2)c2cc3ccccc3c3ccc4ccccc4c23)cc1 | > 800 | inactive | –
O=S(=O)(c1ccc(Cl)cc1)N(Cc1ccccc1)c1cccc2ccccc12 | > 800 | inactive | –
NC(=O)c1ncn([C@@H]2O[C@H](CO)[C@@H](O)[C@H]2O)n1 [RIBAVIRIN] | 707 | – | EC50 [3]: 13 µM; selectivity ratio at 72 h [4]: 54.4; Activity [5]: Active; inhibition in vivo at 50 mg/kg/day [6]: 40%; EC50 [7]: 18.5 µM; selectivity ratio [8]: 38.3; EC50 [9]: 24.8 µM; selectivity ratio [10]: 28.5; Activity [11]: 92.5%; Activity [12]: 7.48%; Activity [13]: 93.2%; Activity [14]: 2.76%; Activity [15]: 2.43%; Activity [16]: 1.56%
COc1ccc(S(=O)(=O)N(Cc2ccccc2)c2cccc3ccccc23)cc1 | > 800 | inactive | –
CCOC(=O)C1=C[C@@H](OC(CC)CC)[C@H](NC(C)=O)[C@@H](N)C1 [OSELTAMIVIR] | > 800 | – | inhibition [17]: Active; EC50 [3]: 1.7 µM; selectivity ratio at 72 h [4]: > 471; Activity [5]: Active; inhibition in vivo at 50 mg/kg/day [6]: 33.1%; EC50 [7]: 1.71 µM; selectivity ratio [8]: > 468; EC50 [9]: 5.9 µM; selectivity ratio [10]: > 136
CCCCN(c1cccc2ccccc12)S(=O)(=O)c1ccc(C)cc1 | 311 | inactive | –
COc1ccc2c(c1)c(N(Cc1ccccc1)S(=O)(=O)c1ccc(C)cc1)cc1ccccc12 | > 800 | – | EC50 [3]: 21.8 µM; selectivity ratio at 72 h [4]: > 36.8
Cc1ccc(S(=O)(=O)N(C2=CCCc3ccccc32)c2ccccc2)cc1 | 1210 | inactive | –
Cc1ccc(S(=O)(=O)N(c2ccccc2)c2cccc3ccccc23)cc1 | 1160 | inactive | –

SMILES | CC50 at 72 h [1] [µM] | Activity [2] | further results
CCCCN(C1=CCCc2ccccc21)S(=O)(=O)c1ccc(C)cc1 | 1170 | – | EC50 [3]: 39.8 µM; selectivity ratio at 72 h [4]: 29.3
Cc1ccc(S(=O)(=O)N(Cc2ccccc2)c2cc3ccccc3c3ccc(C)cc23)cc1 | > 800 | – | EC50 [3]: 36.4 µM; selectivity ratio at 72 h [4]: > 22
CS(=O)(=O)Nc1cc2ccccc2c2ccccc12 | 73.4 | inactive | –
COC(=O)c1ccc2c(c1)c(N(Cc1ccccc1)S(=O)(=O)c1ccc(C)cc1)cc1ccccc12 | 3670 | inactive | –
Cc1ccc(S(=O)(=O)N(Cc2ccccc2)c2cc3ccccc3c3ccc(-c4ccccc4)cc23)cc1 | > 800 | inactive | –
Cc1ccc(S(=O)(=O)N(c2ccccc2)c2cc3ccccc3c3ccccc23)cc1 | > 800 | inactive | –
Cc1ccc(S(=O)(=O)N(Cc2ccccc2)c2cc3ccccc3c3ccc4ccsc4c23)cc1 | 1420 | inactive | –
O=C1OCCN1C1=CCCc2ccccc21 | 301 | inactive | –
CS(=O)(=O)N(C1=CCCc2ccccc21)c1ccccc1 | 345 | – | EC50 [3]: 50.8 µM; selectivity ratio at 72 h [4]: 6.78
Cc1ccc(S(=O)(=O)N(Cc2ccccc2)c2cc3ccc(C)cc3c3ccccc23)cc1 | > 800 | inactive | –
COc1ccc2c(c1)c(NS(=O)(=O)c1ccc(C)cc1)cc1ccccc12 | > 800 | – | EC50 [3]: 69.5 µM; selectivity ratio at 72 h [4]: > 11.5
O=C1OCCN1c1cccc2ccccc12 | > 800 | inactive | –
Cc1ccc(S(=O)(=O)N(C)c2cc3ccccc3c3ccccc23)cc1 | 3120 | inactive | –
Cc1ccc(S(=O)(=O)N(Cc2ccccc2)C2=CCOc3ccccc32)cc1 | 1270 | – | EC50 [3]: 76.6 µM; selectivity ratio at 72 h [4]: 16.6
Cc1ccc(S(=O)(=O)Nc2cc3ccccc3c3ccc(-c4ccccc4)cc23)cc1 | > 800 | inactive | –
Cc1ccc(S(=O)(=O)N(Cc2ccccc2)c2cc3ccccc3c3cc(Cl)ccc23)cc1 | 2330 | inactive | –
C=CCN(c1cccc2ccccc12)S(=O)(=O)c1ccc(C)cc1 | 620 | inactive | –
O=[N+]([O-])c1ccc(S(=O)(=O)N(Cc2ccccc2)C2=CCCc3ccccc32)cc1 | > 800 | inactive | –
Cc1ccc(S(=O)(=O)N(C)c2cccc3ccccc23)cc1 | > 800 | inactive | –
Cc1ccc(S(=O)(=O)N(Cc2ccccc2)c2cc3ccccc3c3cc(C)ccc23)cc1 | > 800 | inactive | –
C=CCN(C1=CCCc2ccccc21)S(=O)(=O)c1ccc(C)cc1 | 127 | inactive | –
Cc1ccc(S(=O)(=O)N(Cc2ccccc2)C2=CCCc3ccccc32)cc1 | 1170 | inactive | –
